Where “and” joins values, the source holds several entries; their conditions need not be identical. Equal entries are not always repeated.

The assay concerns 876862-298-R-J1-PDC complex spheroids, viability % test/control. The assay is described as follows: Anticancer human tumor 876862-298-R-J1-PDC patient-derived endometrial carcinoma cell line growth inhibition [CLK]. The following applies: for viability, T/C: stronger effect = lower value; for IC50: curve of compound. From the text:
A high-throughput screen of multi-cell type tumor spheroids was designed to identify active combinations of […] and targeted small molecules. Complex spheroids include a stromal component modeled by human endothelial cells (HUVEC) and fibroblasts modeled by human mesenchymal stem cells (MSCs). The concentration ranges selected for each drug and investigational agent were based upon clinically achievable concentrations if the clinical Cmax of the agent was known.
Compounds. The drugs and investigational agents: cirtuvivint (SM08502; NSC835563), CC-671 (NSC850746), vemurafenib (NSC761431), tapotoclax (NSC804041), sotorasib (NSC818433), adagrasib (NSC831453), MRTX-1133 (NSC836407), BAY2416964 (NSC825713), copanlisib (NSC816437), inavolisib (NSC800729), abemaciclib (NSC768073), osimertinib (NSC779217), entinostat (NSC756642), eltanexor (KPT-8602, NSC794443), venetoclax (NSC766270), ceralasertib (NSC777638), bortezomib (NSC756655), olaparib (NSC753686), talazoparib (NSC767125), alisertib (NSC759677), peposertib (NSC802822), gemcitabine (NSC613327), 5-fluorouracil (NSC19893), SN-38 (NSC673596), oxaliplatin (NSC266046), paclitaxel (NSC125973), and doxorubicin (NSC123127), were obtained from the National Cancer Institute (NCI) Developmental Therapeutics Program Chemical Repository. The FDA-approved anticancer drug set is available from the Developmental Therapeutics Program at https://dtp.cancer.gov/organization/dscb/obtaining/available plates.htm. […] The stock solutions were prepared in dimethyl sulfoxide (DMSO, Sigma-Aldrich, St. Louis, MO, cat. D2650), except for the platinum complexes which were prepared in saline (Quality Biological, Gaithersburg, MD, cat. 114-055-101), at 800-fold the tested concentration and stored at -70 degrees C prior to their use. All drugs and investigational agents were tested over a range starting from a high concentration at or near the clinical Cmax and decreasing in half-log increments. If the clinical Cmax for an agent had not been determined, the highest concentration tested was 10 microM.
Cell Culture. All cells were maintained in an incubator at 37 degrees C and 5% CO2 with 95% humidity. The PDC lines were cultured according to standard operating procedures established by the NCI PDMR. Briefly, all PDCs were thawed and cultured in Matrigel-coated flasks prepared with a working solution of 1X Ham's F-12 nutrient mix, without supplementation (Invitrogen, Waltham, MA, cat. 11765054), 100 U/mL penicillin-streptomycin (Invitrogen, cat. 15140122), and 2.5% Matrigel (Corning Inc., Corning, NY, cat. 354248) for the first three passages. The 947758-054-R-J2-PDC line was cultured in 6B/Colon 1A media, which includes advanced DMEM/F-12 (Thermo Fisher Scientific, cat. 12634028), 10 mM HEPES (Thermo Fisher Scientific, cat. 15630080), 1X GlutaMAX supplement (Thermo Fisher Scientific, cat. 35050061), 0.1 mg/mL primocin (InvivoGen, cat. ant-pm-2), 10% defined fetal bovine serum, heat inactivated (HyClone Laboratories Inc., cat. SH30070.03HI), 1.25 mM N-Acetyl-L-cysteine (Sigma-Aldrich, cat. A9165), 10 mM nicotinamide (Sigma-Aldrich, cat. N0636), 1X B-27 supplement (Thermo Fisher Scientific, cat. 17504044), 1X N-2 supplement (Thermo Fisher Scientific, cat. 17502048), and 10 microM Y-27632 dihydrochloride (Tocris Bioscience, cat. 1254). The 876862-298-R-J1-PDC was cultured in 6E media, which includes all 6B/Colon 1A media components plus 50% L-WRN conditioned media (ATCC, cat. CRL-3276), 50 ng/mL recombinant human EGF recombinant protein (hEGF; Thermo Fisher Scientific, cat. PHG0311), 10 ng/mL recombinant human fibroblast growth factor 10 (hGFG-10; PeproTech, cat. 100-26), 1 ng/mL recombinant human fibroblast growth factor 2 (hFGF-2; PeproTech, cat. 100-18B), and 1 µM prostaglandin E2 (PGE2; Tocris, cat. 2296). The 227483-062-R1-J1-PDC line was cultured in Panc media, containing all 6E components except hFGF-2, with the addition of 500 nM SB-431542 (Selleckchem, cat. S1067) and 10 nM gastrin (Tocris, cat. 3006). […]
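Note: spheroids exposed to drugs for 7 days before readout.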
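Throughout, for viability, T/C: 100% = DMSO vehicle control wells.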

Turning to `C#Cc1c(F)ccc2cc(O)cc(-c3ncc4c(N5CC6CCC(C5)N6)nc(OCC56CCCN5CC(F)C6)nc4c3F)c12` (stereo unspecified), the half-inhibitory concentration (IC50) is above 10000 nM. Further, under “compound 0.0316 µM”, the viability, T/C is 95.8% and 117%. Besides, the viability, T/C (compound 0.1 µM) was 100% and 96.1%. For the same molecule, the viability, T/C (compound 0.316 µM) is 90.8% and 110%. Moreover, for the setting “compound 1 µM”, the viability, T/C was 92.2% and 105%. Besides, the viability, T/C (compound 3.16 µM) is 103% and 100%. In addition, the viability, T/C (compound 10 µM) was 81.8% and 86.7%.

In the case of `C=C(F)C(=O)N1CCN(c2nc(OCC3CCCN3C)nc3c2CCN(c2cccc4cccc(Cl)c24)C3)CC1CC#N` (stereo unspecified), the concentration for half-maximal inhibition (IC50) was 5200 nM and 6130 nM. In addition, the viability, T/C (compound 0.0316 µM) is 97.6% and 102%. The viability, T/C (compound 0.1 µM) was 97.9% and 102%. Also, the viability, T/C (compound 0.316 µM) is 92.6% and 96.1%. For the same molecule, the viability, T/C (compound 1 µM) was 102%. Besides, the viability, T/C (compound 3.16 µM) was 86.3% and 96.5%. Where the note is “compound 10 µM”, the viability, T/C is 2.35% and 15.5%.

Take `C=CC(=O)N1CCN(c2nc(=O)n(-c3c(C)ccnc3C(C)C)c3nc(-c4c(O)cccc4F)c(F)cc23)C(C)C1` (stereo unspecified): the half-maximal inhibitory concentration (IC50) was above 10000 nM. Further, for the setting “compound 0.0316 µM”, the viability, T/C is 95.8%. Besides, the viability, T/C (compound 0.1 µM) was 97.3% and 99.5%. Further, the viability, T/C (compound 0.316 µM) is 102% and 108%. For the setting “compound 1 µM”, the viability, T/C is 106% and 103%. The viability, T/C (compound 3.16 µM) is 110% and 114%. Moreover, for the setting “compound 10 µM”, the viability, T/C is 94.6% and 83%.

Turning to `C=CC(=O)Nc1cc(Nc2nccc(-c3cn(C)c4ccccc34)n2)c(OC)cc1N(C)CCN(C)C`, the IC50 was 269 nM and 290 nM. For the same molecule, the viability, T/C (compound 0.000949 µM) is 107% and 103%. Where the note is “compound 0.003 µM”, the viability, T/C was 98.7% and 109%. The viability, T/C (compound 0.00949 µM) was 100% and 103%. Moreover, the viability, T/C (compound 0.03 µM) was 96.7% and 88.7%. Under “compound 0.0949 µM”, the viability, T/C is 81% and 82.2%. Besides, the viability, T/C (compound 0.3 µM) was 46.5% and 48.2%.

With `CC(C)CC(NC(=O)C(Cc1ccccc1)NC(=O)c1cnccn1)B(O)O` (stereo unspecified), the 50% inhibitory concentration (IC50) was 1.99 nM and 1.64 nM. For the setting “compound 0.000949 µM”, the viability, T/C was 116% and 88.5%. For the same molecule, the viability, T/C (compound 0.003 µM) was 13.2% and 7.38%. Moreover, the viability, T/C (compound 0.00949 µM) was 0.57% and 0.51%. In addition, where the note is “compound 0.03 µM”, the viability, T/C was 0.45% and 0.53%. Moreover, the viability, T/C (compound 0.0949 µM) was 0.3% and 0.59%. Further, the viability, T/C (compound 0.3 µM) was 0.2% and 0.9%.

`CC(CO)NC(=O)c1cc(-c2ccc(Cl)cc2)nn(-c2cnn(C)c2)c1=O` (stereo unspecified): the IC50 is above 10000 nM. The viability, T/C (compound 0.0316 µM) was 85% and 116%. Also, the viability, T/C (compound 0.1 µM) is 92.3% and 95.9%. Moreover, the viability, T/C (compound 0.316 µM) is 79.3% and 80.6%. For the setting “compound 1 µM”, the viability, T/C was 88.4% and 76.2%. Besides, where the note is “compound 3.16 µM”, the viability, T/C was 71.6% and 78.7%. Where the note is “compound 10 µM”, the viability, T/C is 56% and 64.9%.

As for `CC(Nc1ccc2c(c1)OCCn1cc(N3C(=O)OCC3C(F)F)nc1-2)C(N)=O` (stereo unspecified), the half-inhibitory concentration (IC50) was 2840 nM and 1210 nM. Moreover, the viability, T/C (compound 0.0316 µM) was 105% and 86.6%. The viability, T/C (compound 0.1 µM) is 81.8% and 90.4%. Besides, under “compound 0.316 µM”, the viability, T/C was 76.5% and 68.3%. Also, the viability, T/C (compound 1 µM) is 72.2% and 51.6%. For the same molecule, under “compound 3.16 µM”, the viability, T/C was 48.5% and 38.3%. Further, the viability, T/C (compound 10 µM) is 27.7% and 22.8%.

With `CCCS(=O)(=O)Nc1ccc(F)c(C(=O)c2c[nH]c3ncc(-c4ccc(Cl)cc4)cc23)c1F`, the IC50 was 8630 nM and 7530 nM. Besides, the viability, T/C (compound 0.0316 µM) was 111% and 94.9%. In addition, the viability, T/C (compound 0.1 µM) was 107% and 108%. Where the note is “compound 0.316 µM”, the viability, T/C is 108% and 97.3%. Moreover, the viability, T/C (compound 1 µM) is 100% and 110%. The viability, T/C (compound 3.16 µM) was 91.8% and 83.4%. In addition, the viability, T/C (compound 10 µM) was 43.5% and 39.1%.

Source of the values: PubChem BioAssay AID2060607 (Molecular Pharmacology Branch, DTP, NCI, 2025).
